Reference: US8513238B2 (Hoffmann-La Roche Inc., priority 2010, dated 2013)
Counter-ions that a name gives are not always drawn. Each block holds one compound with its values, some of them ahead of it.

Biological target: T1, human V1a receptor (Homo sapiens, UniProt P37288)
T1 construct: expressed in transfected cells; host or cells: HEK293 cells, transiently transfected; membranes prepared
Test: human V1a receptor binding (3H-Vasopressin SPA, HEK293 membranes)
Conditions: membranes of HEK293 cells transiently transfected with human V1a receptor, Ki by Cheng-Prussoff, read-out: pKi (hV1a) (converted)
Description: The human V1a receptor was cloned by RT-PCR from total human liver RNA. The coding sequence was subcloned in an expression vector after sequencing to confirm the identity of the amplified sequence. […] Cell membranes were prepared from HEK293 cells transiently transfected with the expression vector and grown in 20 liter fermenters with the following protocol.
50 g of cells are resuspended in 30 ml freshly prepared ice cold Lysis buffer (50 mM HEPES, 1 mM EDTA, 10 mM magnesium dichloride adjusted to pH=7.4+complete cocktail of protease inhibitor (Roche Diagnostics)). Homogenized with Polytron for 1 min and sonicated on ice for 2×2 minutes at 80% intensity (Vibracell sonicator). The preparation is centrifuged 20 min at 500 g at 4° C., the pellet is discarded and the supernatant centrifuged 1 hour at 43,000 g at 4° C. (19,000 rpm). The pellet is resuspended in 12.5 ml Lysis buffer+12.5 ml sucrose 20% and homogenized using a Polytron for 1-2 min. The protein concentration is determined by the Bradford method and aliquots are stored at −80° C. until use. For binding studies 60 mg Yttrium silicate SPA beads (Amersham®) are mixed with an aliquot of membrane in binding buffer (50 mM Tris, 120 mM sodium chloride, 5 mM potassium chloride, 2 mM calcium dichloride, 10 mM magnesium dichloride) for 15 minutes with mixing. 50 μl of bead/membrane mixture is then added to each well of a 96 well plate, followed by 50 μl of 4 nM 3H-Vasopressin (American Radiolabeled Chemicals). For total binding measurement 100 μl of binding buffer are added to the respective wells, for non-specific binding 100 μl of 8.4 mM cold vasopressin and for compound testing 100 μl of a serial dilution of each compound in 2% dimethyl sulfoxide. The plate is incubated 1 h at room temperature, centrifuged 1 min at 1000 g and counted on a Packard Top-Count. Non-specific binding counts are subtracted from each well and data is normalized to the maximum specific binding set at 100%. To calculate an IC50 the curve is fitted using a non-linear regression model (XLfit) and the Ki is calculated using the Cheng-Prussoff equation.

T1 sequence (P37288 whole entry): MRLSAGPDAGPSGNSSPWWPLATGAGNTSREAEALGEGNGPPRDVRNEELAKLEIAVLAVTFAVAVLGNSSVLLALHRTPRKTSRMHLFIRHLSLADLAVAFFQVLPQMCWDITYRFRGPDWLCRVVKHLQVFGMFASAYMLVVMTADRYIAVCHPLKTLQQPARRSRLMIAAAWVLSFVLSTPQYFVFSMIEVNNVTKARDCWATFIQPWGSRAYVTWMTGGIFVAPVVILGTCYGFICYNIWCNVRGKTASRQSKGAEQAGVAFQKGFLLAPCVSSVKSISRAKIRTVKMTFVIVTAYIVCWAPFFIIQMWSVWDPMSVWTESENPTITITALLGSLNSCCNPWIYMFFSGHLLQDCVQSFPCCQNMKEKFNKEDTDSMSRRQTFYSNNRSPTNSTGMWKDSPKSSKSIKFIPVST

Compound: Clc1ccc2c(c1)CNCc1nnc([C@H]3CC[C@H](c4noc5c4CCCC5)CC3)n1-2 [Example 55, trans-8-Chloro-1-[4-(4,5,6,7-tetrahydro-benzo[d]isoxazol-3-yl)-cyclohexyl]-5,6-dihydro-4H-2,3,5,10b-tetraaza-benzo[e]azulene]
- Ki: 5.89 nM

Compound: CN1Cc2cc(Cl)ccc2-n2c(nnc2[C@H]2CC[C@H](c3noc4c3CCCC4)CC2)C1 [Example 56, trans-8-Chloro-5-methyl-1-[4-(4,5,6,7-tetrahydro-benzo[d]isoxazol-3-yl)-cyclohexyl]-5,6-dihydro-4H-2,3,5,10b-tetraaza-benzo[e]azulene]
- Ki: 1.58 nM

Compound: CC(C)(C)OC(=O)N1Cc2cc(Cl)ccc2-n2c(nnc2[C@H]2CC[C@@H](c3noc4c3CCCC4)CC2)C1 [Example 57, cis-8-Chloro-1-[4-(4,5,6,7-tetrahydro-benzo[d]isoxazol-3-yl)-cyclohexyl]-4H,6H-2,3,5,10b-tetraaza-benzo[e]azulene-5-carboxylic acid tert-butyl ester]
- Ki: 46.8 nM

Compound: Clc1ccc2c(c1)CNCc1nnc([C@H]3CC[C@@H](c4noc5c4CCCC5)CC3)n1-2 [Example 58, cis-8-Chloro-1-[4-(4,5,6,7-tetrahydro-benzo[d]isoxazol-3-yl)-cyclohexyl]-5,6-dihydro-4H-2,3,5,10b-tetraaza-benzo[e]azulene]
- Ki: 191 nM

Compound: CN1Cc2cc(Cl)ccc2-n2c(nnc2[C@H]2CC[C@@H](c3noc4c3CCCC4)CC2)C1 [Example 59, cis-8-Chloro-5-methyl-1-[4-(4,5,6,7-tetrahydro-benzo[d]isoxazol-3-yl)-cyclohexyl]-5,6-dihydro-4H-2,3,5,10b-tetraaza-benzo[e]azulene]
- Ki: 8.13 nM

Compound: CC(C)(C)OC(=O)N1Cc2cc(Cl)ccc2-n2c(nnc2[C@H]2CC[C@H](c3onc4c3CCCC4)CC2)C1 [Example 60, trans-8-Chloro-1-[4-(4,5,6,7-tetrahydro-benzo[c]isoxazol-3-yl)-cyclohexyl]-4H,6H-2,3,5,10b-tetraaza-benzo[e]azulene-5-carboxylic acid tert-butyl ester]
- Ki: 15.5 nM

Compound: Clc1ccc2c(c1)CNCc1nnc([C@H]3CC[C@H](c4onc5c4CCCC5)CC3)n1-2 [Example 61, trans-8-Chloro-1-[4-(4,5,6,7-tetrahydro-benzo[c]isoxazol-3-yl)-cyclohexyl]-5,6-dihydro-4H-2,3,5,10b-tetraaza-benzo[e]azulene]
- Ki: 30.2 nM

Compound: CN1Cc2cc(Cl)ccc2-n2c(nnc2[C@H]2CC[C@H](c3onc4c3CCCC4)CC2)C1 [Example 62, trans-8-Chloro-5-methyl-1-[4-(4,5,6,7-tetrahydro-benzo[c]isoxazol-3-yl)-cyclohexyl]-5,6-dihydro-4H-2,3,5,10b-tetraaza-benzo[e]azulene]
- Ki: 6.31 nM

Compound: Cc1nnc([C@H]2CC[C@H](c3nnc4n3-c3ccc(Cl)cc3CN(C(=O)OC(C)(C)C)C4)CC2)o1 [Example 63, trans-8-Chloro-1-[4-(5-methyl-[1,3,4]oxadiazol-2-yl)-cyclohexyl]-4H,6H-2,3,5,10b-tetraaza-benzo[e]azulene-5-carboxylic acid tert-butyl ester]
- Ki: 1.58 nM

Compound: Cc1nnc([C@H]2CC[C@H](c3nnc4n3-c3ccc(Cl)cc3CNC4)CC2)o1 [Example 64, trans-8-Chloro-1-[4-(5-methyl-[1,3,4]oxadiazol-2-yl)-cyclohexyl]-5,6-dihydro-4H-2,3,5,10b-tetraaza-benzo[e]azulene]
- Ki: 204 nM

Compound: Cc1nnc([C@H]2CC[C@H](c3nnc4n3-c3ccc(Cl)cc3CN(C)C4)CC2)o1 [Example 65, trans-8-Chloro-5-methyl-1-[4-(5-methyl-[1,3,4]oxadiazol-2-yl)-cyclohexyl]-5,6-dihydro-4H-2,3,5,10b-tetraaza-benzo[e]azulene]
- Ki: 15.8 nM

Compound: Cc1noc([C@H]2CC[C@H](c3nnc4n3-c3ccc(Cl)cc3CN(C(=O)OC(C)(C)C)C4)CC2)n1 [Example 66, trans-8-Chloro-1-[4-(3-methyl-[1,2,4]oxadiazol-5-yl)-cyclohexyl]-4H,6H-2,3,5,10b-tetraaza-benzo[e]azulene-5-carboxylic acid tert-butyl ester]
- Ki: 2.88 nM

- Ki: 67.6 nM
Compound: Cc1noc([C@H]2CC[C@H](c3nnc4n3-c3ccc(Cl)cc3CNC4)CC2)n1 [Example 67, trans-8-Chloro-1-[4-(3-methyl-[1,2,4]oxadiazol-5-yl)-cyclohexyl]-5,6-dihydro-4H-2,3,5,10b-tetraaza-benzo[e]azulene hydrochloride]

Compound: Cc1noc([C@H]2CC[C@H](c3nnc4n3-c3ccc(Cl)cc3CN(C)C4)CC2)n1 [Example 68, trans-8-Chloro-5-methyl-1-[4-(3-methyl-[1,2,4]oxadiazol-5-yl)-cyclohexyl]-5,6-dihydro-4H-2,3,5,10b-tetraaza-benzo[e]azulene]
- Ki: 6.61 nM

Compound: Cc1nsc([C@H]2CC[C@H](c3nnc4n3-c3ccc(Cl)cc3CN(C(=O)OC(C)(C)C)C4)CC2)n1 [Example 69, trans-8-Chloro-1-[4-(3-methyl-[1,2,4]thiadiazol-5-yl)-cyclohexyl]-4H,6H-2,3,5,10b-tetraaza-benzo[e]azulene-5-carboxylic acid tert-butyl ester]
- Ki: 1.51 nM

Compound: Cc1nsc([C@H]2CC[C@H](c3nnc4n3-c3ccc(Cl)cc3CNC4)CC2)n1 [Example 70, trans-8-Chloro-1-[4-(3-methyl-[1,2,4]thiadiazol-5-yl)-cyclohexyl]-5,6-dihydro-4H-2,3,5,10b-tetraaza-benzo[e]azulene]
- Ki: 129 nM

Compound: Cc1nsc([C@H]2CC[C@H](c3nnc4n3-c3ccc(Cl)cc3CN(C)C4)CC2)n1 [Example 71, trans-8-Chloro-5-methyl-1-[4-(3-methyl-[1,2,4]thiadiazol-5-yl)-cyclohexyl]-5,6-dihydro-4H-2,3,5,10b-tetraaza-benzo[e]azulene]
- Ki: 15.1 nM

Compound: Cc1nc([C@H]2CC[C@H](c3nnc4n3-c3ccc(Cl)cc3CN(C(=O)OC(C)(C)C)C4)CC2)no1 [Example 72, trans-8-Chloro-1-[4-(5-methyl-[1,2,4]oxadiazol-3-yl)-cyclohexyl]-4H,6H-2,3,5,10b-tetraaza-benzo[e]azulene-5-carboxylic acid tert-butyl ester]
- Ki: 0.708 nM

- Ki: 15.8 nM
Compound: Cc1nc([C@H]2CC[C@H](c3nnc4n3-c3ccc(Cl)cc3CNC4)CC2)no1 [Example 73, trans-8-Chloro-1-[4-(5-methyl-[1,2,4]oxadiazol-3-yl)-cyclohexyl]-5,6-dihydro-4H-2,3,5,10b-tetraaza-benzo[e]azulene hydrochloride]

Compound: Cc1nc([C@H]2CC[C@H](c3nnc4n3-c3ccc(Cl)cc3CN(C)C4)CC2)no1 [Example 74, trans-8-Chloro-5-methyl-1-[4-(5-methyl-[1,2,4]oxadiazol-3-yl)-cyclohexyl]-5,6-dihydro-4H-2,3,5,10b-tetraaza-benzo[e]azulene]
- Ki: 3.24 nM

Compound: CCN1Cc2cc(Cl)ccc2-n2c(nnc2[C@H]2CC[C@H](c3noc(C)n3)CC2)C1 [Example 75, trans-8-Chloro-5-ethyl-1-[4-(5-methyl-[1,2,4]oxadiazol-3-yl)-cyclohexyl]-5,6-dihydro-4H-2,3,5,10b-tetraaza-benzo[e]azulene]
- Ki: 6.76 nM

Compound: Cc1nc([C@H]2CC[C@H](c3nnc4n3-c3ccc(Cl)cc3CN(C(C)C)C4)CC2)no1 [Example 76, trans-8-Chloro-5-isopropyl-1-[4-(5-methyl-[1,2,4]oxadiazol-3-yl)-cyclohexyl]-5,6-dihydro-4H-2,3,5,10b-tetraaza-benzo[e]azulene]
- Ki: 10 nM

Compound: Cc1nc([C@H]2CC[C@H](c3nnc4n3-c3ccc(Cl)cc3CN(C3CCC3)C4)CC2)no1 [Example 77, trans-8-Chloro-5-cyclobutyl-1-[4-(5-methyl-[1,2,4]oxadiazol-3-yl)-cyclohexyl]-5,6-dihydro-4H-2,3,5,10b-tetraaza-benzo[e]azulene]
- Ki: 1.51 nM

Compound: Cc1nc([C@H]2CC[C@H](c3nnc4n3-c3ccc(Cl)cc3CN(C3CCCC3)C4)CC2)no1 [Example 78, trans-8-Chloro-5-cyclopentyl-1-[4-(5-methyl-[1,2,4]oxadiazol-3-yl)-cyclohexyl]-5,6-dihydro-4H-2,3,5,10b-tetraaza-benzo[e]azulene]
- Ki: 5.89 nM

- Ki: 3.39 nM
Compound: Cc1nc([C@H]2CC[C@H](c3nnc4n3-c3ccc(Cl)cc3CN(CC(F)F)C4)CC2)no1 [Example 79, trans-8-Chloro-5-(2,2-difluoro-ethyl)-1-[4-(5-methyl-[1,2,4]oxadiazol-3-yl)-cyclohexyl]-5,6-dihydro-4H-2,3,5,10b-tetraaza-benzo[e]azulene]

Compound: CC(=O)N1Cc2cc(Cl)ccc2-n2c(nnc2[C@H]2CC[C@H](c3noc(C)n3)CC2)C1 [Example 80, trans-1-{8-Chloro-1-[4-(5-methyl-[1,2,4]oxadiazol-3-yl)-cyclohexyl]-4H,6H-2,3,5,10b-tetraaza-benzo[e]azulen-5-yl}-ethanone]
- Ki: 22.9 nM
